Results: paper PMC2246842, “Decrease of prostaglandin I2 binding sites in thyroid cancer” (British Journal of Cancer, 1988)
Values joined by “and” are separate entries in the source; they are usually repeats but may differ in a detail not shown here. Equal entries are not always repeated.

Legend:
[1] = design: method as in Moncada et al., 1976; details: pH 7.4; degradation to 6-oxo-PGF1a; ref Moncada et al., 1976; cited from earlier work
[2] = target: T1, prostaglandin I2 (prostacyclin, PGI2) binding sites (Homo sapiens, UniProt P43119); assay: [3H]iloprost saturation binding (vacuum filtration, Scatchard analysis) on less differentiated and anaplastic thyroid cancer membrane fraction
T1 sequence (P43119 1-383): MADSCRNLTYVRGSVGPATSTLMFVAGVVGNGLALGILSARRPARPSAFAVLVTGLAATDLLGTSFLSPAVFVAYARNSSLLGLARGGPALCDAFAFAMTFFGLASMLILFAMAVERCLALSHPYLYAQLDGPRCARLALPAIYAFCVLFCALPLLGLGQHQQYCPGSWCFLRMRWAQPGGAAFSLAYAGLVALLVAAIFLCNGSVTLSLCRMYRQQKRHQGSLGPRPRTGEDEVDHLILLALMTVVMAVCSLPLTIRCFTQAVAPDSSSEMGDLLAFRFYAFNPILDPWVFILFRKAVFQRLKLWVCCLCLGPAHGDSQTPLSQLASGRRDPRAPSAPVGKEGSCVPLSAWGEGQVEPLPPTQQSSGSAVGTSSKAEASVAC
Procedure: (§1) For comparative studies saturation experi- ments were performed. […] Values are given as x +s.d. Student's t-test was employed for paired data. […] Each point represents the average of 6 separate experiments. […] Each point represents the average of 5 separate determinations.

[3] = target: T1, prostaglandin I2 (prostacyclin, PGI2) binding sites; assay: [3H]iloprost saturation binding (vacuum filtration, Scatchard analysis) on benign solitary thyroid adenoma membrane fraction
[4] = target: T1, prostaglandin I2 (prostacyclin, PGI2) binding sites; assay: [3H]iloprost saturation binding (vacuum filtration, Scatchard analysis) on well differentiated thyroid cancer membrane fraction
Procedure: as §1

[5] = target: prostaglandin I2 (prostacyclin, PGI2) binding sites; assay: [3H]iloprost saturation binding (vacuum filtration, Scatchard analysis) on normal thyroid membrane fraction; design: species or system human; details: normal thyroid tissue, 4 C, 40 min, mean +/- s.d.; read-out: equilibrium dissociation constant (Kd), low affinity binding sites
Procedure: as §1

[6] = target: T1, prostaglandin I2 (prostacyclin, PGI2) binding sites; assay: as above
Procedure: as §1

Row | Structure (SMILES) | stability in aqueous medium [1] | Bmax [2] | Bmax, high affinity binding sites [2] | diminution of [3H]iloprost high affinity binding sites [2] | Bmax, high affinity binding sites [3] | Bmax [4] | Bmax, high affinity binding sites [4] | Kd [5] | binding capacity (Bmax), high affinity binding sites [6]
1 | CCCCC[C@H](O)/C=C/[C@@H]1[C@H]2C/C(=C/CCCC(=O)O)O[C@H]2C[C@H]1O [PGI2, prostaglandin I2] | rapid hydrolysis | – | – | – | – | – | – | – | –
2 | CC#CCC(C)[C@H](O)/C=C/[C@@H]1[C@H]2C/C(=C/CCCC(=O)O)C[C@H]2C[C@H]1O (stereo partly drawn) [[3H]iloprost, iloprost] | – | 218.1 fmol mg- 1 protein and 176.0 fmol mg- 1 protein and 153.2 fmol mg- 1 protein and 165.3 fmol mg- 1 protein and 190.6 fmol mg- 1 protein | 180.6 ± 25.1 | ~70% | 325.8 ± 110.0 | 328.9 fmol mg- 1 protein and 359.2 fmol mg- 1 protein and 253.6 fmol mg- 1 protein and 255.5 fmol mg- 1 protein and 301.2 fmol mg- 1 protein | 299.7 ± 46.0 | 132 nM | 613.2 ± 130.4
